PMC12933331, “A Cryptic Pocket Allosterically Modulates Oligosaccharide Binding to DC-SIGN” (JACS Au, 2026)
Substitutions are numbered along the chain they refer to. Numbers in names are those of the source.

Assays:
DC-SIGN ECD T314A [1] = molecular target: T1, DC-SIGN ECD T314A (Homo sapiens, UniProt Q9NNX6, T314A); assay: Plate-based horseradish peroxidase assay; type: binding
T1 construct: acids 64 -404 of DC -SIGN; made in house
T1 sequence (Q9NNX6 64-404 T314A): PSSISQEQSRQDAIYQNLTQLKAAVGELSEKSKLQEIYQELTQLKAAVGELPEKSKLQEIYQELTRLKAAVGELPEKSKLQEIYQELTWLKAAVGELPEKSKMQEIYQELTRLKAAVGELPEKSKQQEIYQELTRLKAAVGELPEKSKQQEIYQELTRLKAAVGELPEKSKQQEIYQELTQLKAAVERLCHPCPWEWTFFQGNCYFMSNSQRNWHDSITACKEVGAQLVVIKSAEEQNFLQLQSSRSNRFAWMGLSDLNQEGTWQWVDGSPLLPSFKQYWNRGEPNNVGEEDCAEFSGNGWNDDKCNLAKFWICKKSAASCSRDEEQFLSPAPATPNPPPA

DC-SIGN ECD M270F [2] = molecular target: T2, DC-SIGN ECD M270F (Homo sapiens, UniProt Q9NNX6, M270F); assay: 19F R2-filtered NMR reporter assay, CaCl2 titration; settings: binding of 0.1 mM ManNAcF3 reporter, R2,obs
T2 construct: acids 64 -404 of DC -SIGN; made in house
T2 sequence (Q9NNX6 64-404 M270F): T1 sequence (Q9NNX6 64-404 T314A) with M207F, A251T
Experimental: (§1) 19F R2-filtered NMR reporter displacement assay. The 19F R2-filtered NMR reporter displacement assay was adjusted for CaCl2 titrations with DC-SIGN ECD as previously described.1 Apparent transverse relaxation rates R2,obs were obtained using the CPMG pulse sequence with a relaxation delay d1 of 2.0 s, acquisition time tacq of 0.8 s and a CPMG frequency νCPMG of 500 Hz.
(§2) DC-SIGN ECD was dialyzed four times against 25 mM HEPES, 150 mM NaCl (pH 7.4) to remove Ca2+ prior to measurements. Samples contained 25 μM DC-SIGN ECD in 25 mM HEPES, 150 mM NaCl (pH 7.4) supplemented with 10% D2O and 0.1 mM of the ManNAcF3 reporter molecule.
(§3) TFA at a concentration of 0.1 mM served as an internal reference. 512 scans were recorded to ensure sufficient signal to noise ratios. R2,obs values were obtained by fitting equation 5 to integrals I of the 19F resonance of the reporter at different relaxation times T with I0 as integral at T = 0 s. […]

DC-SIGN ECD T314A [3] = molecular target: T1, DC-SIGN ECD T314A; assay: as above; settings: binding of 0.1 mM ManNAcF3 reporter, R2,obs
Experimental: as §1, §2, §3

DC-SIGN ECD wildtype [4] = molecular target: T3, DC-SIGN ECD wildtype (Homo sapiens, UniProt Q9NNX6); assay: as above; settings: binding of 0.1 mM ManNAcF3 reporter, R2,obs
T3 construct: acids 64 -404 of DC -SIGN; made in house
T3 sequence (Q9NNX6 64-404): T1 sequence (Q9NNX6 64-404 T314A) with A251T
Experimental: as §1, §2, §3

DC-SIGN ECD M270F [5] = molecular target: T2, DC-SIGN ECD M270F; assay: Plate-based horseradish peroxidase assay; type: binding
Experimental: (§4) chromatography. Purified protein was dialyzed against 25 mM HEPES, 150 mM NaCl, 10 mM CaCl2, pH 7.4, concentrated using a centrifugal spin filter, snap frozen and then stored at -80°C. […]
(§5) Plate-based horseradish peroxidase assay
(§6) General remarks. Unless stated otherwise, all reagents and buffers were obtained from Sigma Aldrich or Carl Roth. Measurements were done on a Enspire Multimode Plate Reader (PerkinElmer). GraphPad Prism was used for all data processing and analysis.
(§7) CaCl2 titration. 100 µg mL-1 DC-SIGN ECD were immobilized in immobilization buffer (25 mM HEPES, 150 mM NaCl, 25 mM CaCl 2, pH 7.4) overnight at 4°C on transparent Nunc Maxisorp 96-well plates (Thermo Fisher). Protein solution was removed, and plates were washed three times with immobilization buffer and then blocked for 2 hours at 4°C with blocking buffer (25 mM HEPES, 150 mM NaCl, 25 mM CaCl 2, 2% BSA, 0.01% Tween -20). Plates were washed twice with 25 mM HEPES, 150 mM NaCl, 5 mM EDTA, pH 7.4 and twice with 25 mM HEPES, 150 mM NaCl, pH 7.4 to remove residual Ca 2+. To titrate Ca2+, CaCl2 in 25 mM HEPES, 150 mM NaCl, pH 7.4 was serially diluted on the plate at a constant HRP concentration of 1 µg mL-1 and then incubated at RT for 2 hours. Following incubation, plates were washed three times with 25 mM HEPES, 150 mM NaCl, pH 7.4 and bound HRP was detected using a TMB substrate kit (Thermo Fisher) and 0.18 M H2SO4 according to manufacturer’s instructions. Absorption was […]
(§8) HRP titration. Immobilization and blocking were done as described above. After blocking, plates were washed three times with immobilization buffer. HRP in immobilization buffer was serially diluted on the plate at a constant concentration CaCl2 concentration of 25 mM and then incubated […]
(§9) at RT for 2 hours. Following incubation, plates were washed three times with immobilization buffer and HRP was detected as described above.
(§10) Immobilization and blocking were done as described above. After blocking, plates were washed three times with immobilization buffer. Mannose in immobilization buffer containing 1 µg mL-1 HRP was serially diluted on the plate and then incubated at RT for 2 hours.
(§11) Following incubation, plates were washed three times with immobilization buffer and HRP was detected as described above.
(§12) All conditions were measured in technical triplicates, averaged and normalized to the control well […]
(§13) IC50 and EC50 values and hill […]
(§14) slopes (nH) were obtained in a four-parameter fit according to equation (1).
(§15) Y = bottom + top − bottom (1)
(§16) With bottom and top representing the minimal and maximal response plateaus, respectively, Y as the observed response and X the logarithmic concentration of the ligand . […]
(§17) Biosynth. Spectra were processed in TopSpin 4.2.0 and data analysis was performed using CCPN Analysis 3.2.0 for 2D spectra and in MestreNova for 1D spectra.2 Further analysis was done using GraphPad Prism and in-house python scripts.

DC-SIGN ECD wildtype [6] = molecular target: T3, DC-SIGN ECD wildtype; assay: Plate-based horseradish peroxidase assay; type: binding
Experimental: as §4, §5, §6, §7, §8, §9, §10, §11, §12, §13, §14, §15, §16, §17

DC-SIGN CRD M270F = molecular target: T4, DC-SIGN CRD M270F (Homo sapiens, UniProt Q9NNX6, M270F); assay: 1H-15N HSQC NMR titration (CSP fitting); type: binding
T4 construct: acids 253-404 of DC-SIGN; His-tag (N); made in house
T4 sequence (Q9NNX6 253-404 M270F): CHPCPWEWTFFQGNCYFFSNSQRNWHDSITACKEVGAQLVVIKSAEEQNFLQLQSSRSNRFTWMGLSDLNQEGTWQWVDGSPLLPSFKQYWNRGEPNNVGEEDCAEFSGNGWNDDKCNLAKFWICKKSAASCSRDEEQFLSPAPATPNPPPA
Experimental: (§18) 1H-15N HSQC NMR. 1H-15N HSQC NMR spectra were collected with 256 increments in the nitrogen and 24 scans per increment and 2048 points in the direct dimension. The relaxation delay d1 was set to 1.0 s. The W5 WATERGATE pulse sequence was used for solvent suppression.3, 4 Experiments were performed at a CRD concentration of 200 μM in 20 mM MES, 40 mM NaCl, 10 mM CaCl2 (pH 6.0) supplemented with 10% D 2O and, if applicable, varying concentrations of ligands. Samples of apo DC -SIGN CRD were prepared as described for 1H-13C HSQC NMR experiments. A previously published resonance assignment of DC-SIGN CRD was transferred to the nearest neighbor in a reference spectrum recorded without ligand.5 Unassigned, overlapping or disappearing peaks were not assigned.
(§19) CSPs induced by mutations or ligands were calculated as previously described according to […]
(§20) The empirical weighing factor a was set to 0.15 for all calculations.
(§21) Dissociation constants (K Ds) were determined in titration experiments at five ligand concentratio ns […]
(§22) in the fast exchange regime were used for the fitting procedure via equation 4 in a global two - […]
(§23) with CSP max corresponding to the CSP values upon saturation and the bound protein fraction p b […]
(§24) CHESPA was performed as previously described .7 The chemical shift vector between apo and holo wildtype DC -SIGN CRD was used as reference perturbation to calculate the vector product to […]

DC-SIGN CRD wildtype = molecular target: T5, DC-SIGN CRD wildtype (Homo sapiens, UniProt Q9NNX6); assay: 1H-15N HSQC NMR titration (CSP fitting); type: binding
T5 construct: acids 253-404 of DC-SIGN; His-tag (N); made in house
T5 sequence (Q9NNX6 253-404): T4 sequence (Q9NNX6 253-404 M270F) with F18M
Experimental: as §18, §19, §20, §21, §22, §23, §24

DC-SIGN CRD T314A = molecular target: T6, DC-SIGN CRD T314A (Homo sapiens, UniProt Q9NNX6, T314A); assay: 1H-15N HSQC NMR titration (CSP fitting); type: binding; settings: Lewis X titration, three concentrations, saturation not reached (estimated)
T6 construct: acids 253-404 of DC-SIGN; His-tag (N); made in house
T6 sequence (Q9NNX6 253-404 T314A): T4 sequence (Q9NNX6 253-404 M270F) with F18M, T62A
Experimental: as §18, §19, §20, §21, §22, §23, §24

[7] = molecular target: the molecule itself; assay: dynamic light scattering; purified ECDs; tetrameric state judged from mannan affinity chromatography, DLS and DSF together
[8] = constant HRP concentration (1 µg mL-1), read-out: EC50 (mean ± SD), CaCl2 titration
[9] = Lewis X titration, three concentrations, saturation not reached (estimated)
[10] = HRP titration at saturating CaCl2
[11] = saturating CaCl2 (25 mM), plate-immobilized ECD

[Ca+2].[Cl-].[Cl-] [CaCl2]
EC50 (DC-SIGN ECD T314A [1]; [8]): 1200 ± 300 µM
hill slope, CaCl2 titration (DC-SIGN ECD M270F [2]): 1.4
EC50 (DC-SIGN ECD M270F [2]; 25 μM ECD): 200 µM
hill slope, CaCl2 titration (DC-SIGN ECD T314A [3]): 1.7
EC50 (DC-SIGN ECD T314A [3]; 25 μM ECD): 600 µM
hill slope, CaCl2 titration (DC-SIGN ECD wildtype [4]): 2.0
EC50 (DC-SIGN ECD wildtype [4]; 25 μM ECD): 300 µM
EC50 (DC-SIGN ECD M270F [5]; [8]): 700 ± 200 µM
EC50 (DC-SIGN ECD wildtype [6]; [8]): 1000 ± 400 µM

CC(=O)N[C@H]1C(O)O[C@H](CO)[C@@H](O[C@@H]2O[C@H](CO)[C@H](O)[C@H](O)[C@H]2O)[C@@H]1O[C@@H]1O[C@@H](C)[C@@H](O)[C@@H](O)[C@@H]1O (stereo partly drawn) [Lewis X, Lewis X trisaccharide]
Kd (DC-SIGN CRD M270F; [9]): 600 ± 200 µM
Kd (DC-SIGN CRD wildtype; [9]): 1100 ± 200 µM
Kd (DC-SIGN CRD T314A): 1400 ± 100 µM

Oc1ccccc1 [phenol]
CSPs on addition of phenol (DC-SIGN CRD M270F; 20 mM phenol, holo CRD, compared with wildtype): drastically reduced CSPs
CSPs on addition of phenol (DC-SIGN CRD wildtype; 20 mM phenol, holo 15N-labeled CRD, residues of cryptic pocket and upper cavity): strong chemical shift perturbations

horseradish peroxidase [HRP]
decreased affinity compared to the wildtype (DC-SIGN ECD T314A [1]; [10]): 4 fold
EC50 (mean ± SD), HRP titration (DC-SIGN ECD T314A [1]; [11]): 8.6 ± 0.1 μg mL^–1
increased affinity compared to the wildtype (DC-SIGN ECD M270F [5]; [10]): 10 fold
EC50 (mean ± SD), HRP titration (DC-SIGN ECD M270F [5]; [11]): 0.2 ± 0.2 μg mL^–1
EC50 (mean ± SD), HRP titration (DC-SIGN ECD wildtype [6]; [11]): 1.8 ± 1.0 µg/mL

B1: DC-SIGN extracellular domain (ECD) M270F (receptor, UniProt Q9NNX6 59-404, looked up)
chain: QVSKVPSSISQEQSRQDAIYQNLTQLKAAVGELSEKSKLQEIYQELTQLKAAVGELPEKSKLQEIYQELTRLKAAVGELPEKSKLQEIYQELTWLKAAVGELPEKSKMQEIYQELTRLKAAVGELPEKSKQQEIYQELTRLKAAVGELPEKSKQQEIYQELTRLKAAVGELPEKSKQQEIYQELTQLKAAVERLCHPCPWEWTFFQGNCYFFSNSQRNWHDSITACKEVGAQLVVIKSAEEQNFLQLQSSRSNRFTWMGLSDLNQEGTWQWVDGSPLLPSFKQYWNRGEPNNVGEEDCAEFSGNGWNDDKCNLAKFWICKKSAASCSRDEEQFLSPAPATPNPPPA
notes: DC-SIGN (CD209), extracellular domain with the point mutation M270F
stoichiometry N [7]: 4

B2: DC-SIGN extracellular domain (ECD) T314A (receptor, UniProt Q9NNX6 59-404, looked up)
chain: B1 chain with F212M, T256A
notes: DC-SIGN (CD209), extracellular domain with the point mutation T314A
stoichiometry N [7]: 4
